Reference: PubChem BioAssay (NCI)
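Following 48 hours of exposure in 96-well plates, responses at five concentrations were used to interpolate endpoints linearly. GI50: concentration for 50% inhibition of growth. The concentration for full growth arrest is given as TGI.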

How the values were obtained:
Assay in all cases: DTP human tumour cell line panel, 48 h
SNB-75 CNS = system: SNB-75 CNS
UO-31 renal = system: UO-31 renal
CCRF-CEM leukemia = system: CCRF-CEM leukemia
OVCAR-8 ovarian = system: OVCAR-8 ovarian
U251 CNS = system: U251 CNS
RXF 393 renal = system: RXF 393 renal
K-562 leukemia = system: K-562 leukemia
OVCAR-4 ovarian = system: OVCAR-4 ovarian
NCI/ADR-RES ovarian = system: NCI/ADR-RES ovarian
HS 578T breast = system: HS 578T breast

| SMILES | TGI (SNB-75 CNS) | TGI (UO-31 renal) | TGI (CCRF-CEM leukemia) | TGI (OVCAR-8 ovarian) | TGI (U251 CNS) | TGI (RXF 393 renal) | TGI (K-562 leukemia) | GI50 (SNB-75 CNS) | GI50 (OVCAR-4 ovarian) | TGI (OVCAR-4 ovarian) | GI50 (NCI/ADR-RES ovarian) | TGI (NCI/ADR-RES ovarian) | GI50 (UO-31 renal) | GI50 (OVCAR-8 ovarian) | GI50 (U251 CNS) | GI50 (RXF 393 renal) | GI50 (K-562 leukemia) | GI50 (HS 578T breast) | TGI (HS 578T breast) | GI50 (CCRF-CEM leukemia) |
| --- | --- | --- | --- | --- | --- | --- | --- | --- | --- | --- | --- | --- | --- | --- | --- | --- | --- | --- | --- | --- |
| O=C(/C=C/c1c(O)ccc2ccccc12)c1cccc2ccccc12 | > 100 µM | > 100 µM | > 67.8 µM | > 100 µM | > 100 µM | > 100 µM | > 88.6 µM | – | – | – | – | – | – | – | – | – | – | – | – | – |
| COc1ccccc1CNC(=O)C1c2ccccc2C(=O)N(CC(C)C)C1c1cccs1 (configuration not stated) | > 100 µM | 72.5 µM | – | > 100 µM | > 100 µM | 48 µM | > 100 µM | 18.1 µM | 26.2 µM | > 100 µM | 20.6 µM | > 100 µM | 17.7 µM | 23.6 µM | 23.9 µM | 17.3 µM | 20.3 µM | 16 µM | 60.1 µM | – |
| Cc1cccc2c1Oc1cc(Cl)ccc1C2NC(=O)CN(C)C (configuration not stated) | 68.8 µM | > 100 µM | > 100 µM | > 100 µM | – | 87.8 µM | > 100 µM | – | – | > 100 µM | – | – | – | – | – | – | – | – | – | – |
| c1ccc2cc(OCC3CO3)c(OCC3CO3)cc2c1 (configuration not stated) | 18.6 µM | 21.8 µM | 1.48 µM | 12.2 µM | 13.9 µM | 1.47 µM | 25.1 µM | – | – | – | – | 27.3 µM | – | – | – | – | – | – | 20.3 µM | – |
| CCc1ccccc1-n1c2nc(=O)n(C)c(=O)c-2nc2ccccc21 | 28.8 µM | 48.2 µM | 39.3 µM | 21.6 µM | 32.8 µM | 30 µM | 31.8 µM | – | – | 18.2 µM | – | – | – | – | – | – | – | – | – | – |
| O=C(CCCNC(=O)OCc1ccccc1)OCc1ccc2c(c1)C(=O)c1ccccc1C2=O | 40.3 µM | > 100 µM | > 100 µM | > 56.2 µM | > 100 µM | 48.5 µM | > 100 µM | – | – | > 100 µM | – | – | – | – | – | – | – | – | – | – |
| COc1ccc(NC(=O)Nc2ccc(Nc3nc(C)cc(Nc4ccc(C)cc4)n3)cc2)cc1 | 3 µM | 2.82 µM | – | – | 3.21 µM | 3.12 µM | – | 1.53 µM | 1.16 µM | 2.55 µM | 1.33 µM | 3.75 µM | 1.48 µM | – | 1.72 µM | 1.61 µM | – | 2.22 µM | 5.4 µM | – |
| Cc1c(C2Cc3ccccc3N2C(=O)/C=C\C(=O)O)c2ccccc2n1C (configuration not stated) | 74.2 µM | > 100 µM | > 100 µM | 43.6 µM | 40.6 µM | 33.1 µM | > 100 µM | – | – | > 100 µM | – | – | – | – | – | – | – | – | – | – |
| O=C1NC(=O)C2(CCC(O)C2)c2cc[n+]([O-])cc21 (configuration not stated) | > 100 µM | > 100 µM | > 100 µM | > 100 µM | > 100 µM | > 100 µM | > 100 µM | – | – | > 100 µM | – | – | – | – | – | – | – | – | > 100 µM | – |
| CCOC(=O)CC1=NC(=Nc2cc(Cl)ccc2Cl)SC1 | > 100 µM | > 100 µM | > 100 µM | > 100 µM | > 100 µM | > 100 µM | > 100 µM | – | – | > 100 µM | – | – | – | – | – | – | – | – | – | – |
| NC1=NC2(O)c3ccccc3C(=O)C2(O)N1 (configuration not stated) | > 100 µM | – | > 100 µM | > 100 µM | > 100 µM | > 100 µM | > 100 µM | – | – | > 100 µM | – | – | – | – | – | – | – | – | – | – |
| NS(=O)(=O)c1ccc(NC(=O)CC(=O)Nc2ccc(S(N)(=O)=O)cc2)cc1 | > 100 µM | > 100 µM | > 100 µM | > 100 µM | > 100 µM | – | > 100 µM | – | – | > 100 µM | – | – | – | – | – | – | – | – | – | – |
| O=C(CCC(=O)N/N=C/c1ccccc1O)N/N=C/c1ccccc1O | 31.7 µM | > 100 µM | – | > 100 µM | > 100 µM | 44.4 µM | > 100 µM | – | – | > 100 µM | – | – | – | – | – | – | – | – | – | – |
| CCc1ccc(/C(C)=N/NC(N)=S)cc1 | – | > 100 µM | – | > 100 µM | > 100 µM | > 100 µM | > 100 µM | – | – | > 100 µM | – | – | – | – | – | – | – | – | – | – |
| OCC(O)COc1c(Cl)ccc(Cl)c1Cl (configuration not stated) | > 100 µM | > 100 µM | > 100 µM | > 100 µM | > 100 µM | > 100 µM | > 100 µM | – | – | > 100 µM | – | – | – | – | – | – | – | – | – | – |
| O=C(N/C(=C\c1ccc(Br)cc1)c1nc2ccccc2s1)c1ccccc1 | > 100 µM | > 100 µM | > 100 µM | > 100 µM | > 100 µM | > 100 µM | > 100 µM | – | – | > 100 µM | – | – | – | – | – | – | – | – | – | – |
| Cc1[nH]c(=O)nc(CC(O)(c2ccccc2)c2ccccc2)c1-c1ccccc1 | > 100 µM | > 100 µM | > 100 µM | > 100 µM | > 100 µM | > 100 µM | > 100 µM | – | – | > 100 µM | – | – | – | – | – | – | – | – | – | – |
| CC(=O)OCC(OC(C)=O)C(OC(C)=O)C(OC(C)=O)C(=O)CNn1c(-c2ccccc2)nc2ccc(Br)cc2c1=O (configuration not stated) | > 100 µM | > 100 µM | > 100 µM | > 100 µM | > 100 µM | > 100 µM | > 100 µM | – | – | > 100 µM | – | – | – | – | – | – | – | – | – | – |
| COc1cc2nc(-c3ccc(-n4cncc4-c4ccc(N)cc4)cc3)sc2c(OC)c1OC | 23.5 µM | 6.87 µM | – | 57.8 µM | 17 µM | 21.1 µM | – | 5.94 µM | 3.6 µM | 32.1 µM | 1.61 µM | 6.43 µM | 1.55 µM | 4.23 µM | 3.84 µM | 4.41 µM | – | 5.36 µM | 49.7 µM | – |
| COc1ccc2c(c1OC)-c1c(c3ccc([N+](=O)[O-])cc3c(=O)n1CCCN=[N+]=[N-])C2=O | – | > 100 µM | 17.1 µM | > 100 µM | > 100 µM | > 100 µM | > 100 µM | – | > 100 µM | > 100 µM | 12.2 µM | > 100 µM | 3.5 µM | 21 µM | 6.2 µM | 10.1 µM | 23.3 µM | > 100 µM | > 100 µM | 2.04 µM |
| COc1cc(-c2nc(SCC(=O)Nc3ccc(C(C)=O)cc3)[nH]c(=O)c2C#N)cc(OC)c1OC | > 100 µM | > 100 µM | > 100 µM | > 100 µM | > 100 µM | > 100 µM | > 100 µM | 28.5 µM | 82.9 µM | > 100 µM | > 100 µM | > 100 µM | 36.6 µM | 73.7 µM | 55.6 µM | 40.1 µM | 37.7 µM | – | – | 31.6 µM |
